Experimental data published in ChEMBL document CHEMBL1201862, “PubChem BioAssay data set” (2004).
The source made the active and inactive calls.

How the values were obtained:
H9c2 = test: cells; format: functional, cell-based; conditions: Rattus norvegicus, H9c2, Myocardium
Large T antigen = Large T antigen (Simian virus 40, UniProt P03070); format: functional, Betapolyomavirus macacae;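 note: Confirmatory-stage PubChem screen for compounds that inhibit SV40 T antigen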
[1] = biological target: FAD-linked sulfhydryl oxidase ALR (Homo sapiens, UniProt P55789); test: ALR-catalysed DTT oxidation blockers – biochemical, H2O2 detection, luminescence, cherry-pick, dose response (AID 493248)
Sequence of FAD-linked sulfhydryl oxidase ALR (P55789 whole entry): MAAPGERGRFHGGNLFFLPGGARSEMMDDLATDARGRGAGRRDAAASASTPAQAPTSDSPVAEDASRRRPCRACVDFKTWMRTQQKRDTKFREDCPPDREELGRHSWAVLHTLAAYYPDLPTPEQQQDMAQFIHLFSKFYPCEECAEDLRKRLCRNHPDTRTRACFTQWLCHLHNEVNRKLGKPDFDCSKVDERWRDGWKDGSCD

[2] = viability of PTEN-deleted HCT116 cells – cell-based, HCT116 PTEN knockout, dose response (AID 1047); format: functional;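 note: HCT116 colon tumor cells with PTEN knocked out; cells exposed to compound for 60 hours before readout; potency for loss of cell viability measured by luminescence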
[3] = viability of HCT116 lacking mutant beta-catenin – cell-based, human colon tumor, dose response (AID 1045); format: functional;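 note: HCT116 colon tumor cells with beta catenin knocked out; cells exposed to compound for 60 hours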
[4] = biological target: T1, Heat shock factor protein 1 (Mus musculus, UniProt P38532); test: enhancement of HSF1-driven luciferase signal – cell-based, NIH3T3, luminescence, dose retest, confirmation (AID 435004); format: functional;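 note: stress induced by proteasome inhibitor MG132 added 30 min after compound; luciferase reporter driven by HSF1 response element in NIH3T3 cells; actives raise luminescence as potentiators of the MG132 stress response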
T1 sequence (P38532 whole entry): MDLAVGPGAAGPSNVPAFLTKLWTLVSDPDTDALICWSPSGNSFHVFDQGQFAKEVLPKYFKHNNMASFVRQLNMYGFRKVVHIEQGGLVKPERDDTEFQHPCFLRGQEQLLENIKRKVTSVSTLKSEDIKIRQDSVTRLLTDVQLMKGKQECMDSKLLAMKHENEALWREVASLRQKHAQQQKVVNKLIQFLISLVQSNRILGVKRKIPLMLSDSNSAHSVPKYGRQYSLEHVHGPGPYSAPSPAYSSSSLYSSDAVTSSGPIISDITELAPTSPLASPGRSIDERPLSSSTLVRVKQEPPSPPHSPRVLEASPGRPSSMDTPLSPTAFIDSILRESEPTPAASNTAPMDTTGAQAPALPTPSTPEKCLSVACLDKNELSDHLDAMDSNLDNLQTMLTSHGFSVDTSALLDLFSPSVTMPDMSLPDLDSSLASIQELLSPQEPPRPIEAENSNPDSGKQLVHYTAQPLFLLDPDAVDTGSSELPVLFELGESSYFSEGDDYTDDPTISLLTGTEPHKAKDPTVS

INS1 = test: INS-1E survival protection against cytokine death – cell-based, luminescence, retest, dose response (AID 449756); format: functional; conditions: Rattus norvegicus;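 note: cell death triggered by IL-1 beta plus TNF-alpha plus IFN-gamma mixture; protective hits raise ATP signal compared with cytokine alone wells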
[5] = biological target: T2, Replicative DNA helicase DnaB (Mycobacterium tuberculosis, UniProt P9WMR3); test: DnaB intein splicing inhibitors, dose response, biochemical, cell-free fluorescence (AID 449749); format: functional
T2 sequence (P9WMR3 whole entry): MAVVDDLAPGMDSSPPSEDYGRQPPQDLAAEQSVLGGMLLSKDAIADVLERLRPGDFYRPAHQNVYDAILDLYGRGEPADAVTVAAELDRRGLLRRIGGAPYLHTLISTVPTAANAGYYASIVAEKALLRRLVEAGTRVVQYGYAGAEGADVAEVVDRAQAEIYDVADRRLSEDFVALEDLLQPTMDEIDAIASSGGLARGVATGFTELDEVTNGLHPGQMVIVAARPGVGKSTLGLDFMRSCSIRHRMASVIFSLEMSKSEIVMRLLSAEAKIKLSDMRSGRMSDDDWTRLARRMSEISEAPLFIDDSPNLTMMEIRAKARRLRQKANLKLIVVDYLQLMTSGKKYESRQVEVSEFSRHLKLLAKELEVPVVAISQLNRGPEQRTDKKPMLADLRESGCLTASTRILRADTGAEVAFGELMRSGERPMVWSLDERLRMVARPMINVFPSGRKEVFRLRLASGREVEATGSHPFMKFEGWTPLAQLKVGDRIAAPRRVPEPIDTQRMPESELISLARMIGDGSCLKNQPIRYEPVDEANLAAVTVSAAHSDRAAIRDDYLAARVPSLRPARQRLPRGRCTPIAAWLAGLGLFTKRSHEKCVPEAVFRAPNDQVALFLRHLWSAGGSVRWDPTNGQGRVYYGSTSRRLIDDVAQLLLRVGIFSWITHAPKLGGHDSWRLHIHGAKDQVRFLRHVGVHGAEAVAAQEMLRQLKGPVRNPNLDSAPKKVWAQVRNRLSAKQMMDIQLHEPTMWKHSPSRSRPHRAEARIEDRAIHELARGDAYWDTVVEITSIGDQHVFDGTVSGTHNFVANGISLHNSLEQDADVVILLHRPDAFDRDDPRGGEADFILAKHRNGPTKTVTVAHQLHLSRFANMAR

Protein RecA = biological target: T3, Protein RecA (Mycobacterium tuberculosis, UniProt P9WHJ3); test: Fluorescence Cell-Free Homogeneous Dose Retest to Identify Inhibitors of RecA-Intein Splicing Activity. [Related pubchem assays (depositor defined):AID2097, AID2223, AID489010, AID492950]; format: functional
T3 sequence (P9WHJ3 whole entry): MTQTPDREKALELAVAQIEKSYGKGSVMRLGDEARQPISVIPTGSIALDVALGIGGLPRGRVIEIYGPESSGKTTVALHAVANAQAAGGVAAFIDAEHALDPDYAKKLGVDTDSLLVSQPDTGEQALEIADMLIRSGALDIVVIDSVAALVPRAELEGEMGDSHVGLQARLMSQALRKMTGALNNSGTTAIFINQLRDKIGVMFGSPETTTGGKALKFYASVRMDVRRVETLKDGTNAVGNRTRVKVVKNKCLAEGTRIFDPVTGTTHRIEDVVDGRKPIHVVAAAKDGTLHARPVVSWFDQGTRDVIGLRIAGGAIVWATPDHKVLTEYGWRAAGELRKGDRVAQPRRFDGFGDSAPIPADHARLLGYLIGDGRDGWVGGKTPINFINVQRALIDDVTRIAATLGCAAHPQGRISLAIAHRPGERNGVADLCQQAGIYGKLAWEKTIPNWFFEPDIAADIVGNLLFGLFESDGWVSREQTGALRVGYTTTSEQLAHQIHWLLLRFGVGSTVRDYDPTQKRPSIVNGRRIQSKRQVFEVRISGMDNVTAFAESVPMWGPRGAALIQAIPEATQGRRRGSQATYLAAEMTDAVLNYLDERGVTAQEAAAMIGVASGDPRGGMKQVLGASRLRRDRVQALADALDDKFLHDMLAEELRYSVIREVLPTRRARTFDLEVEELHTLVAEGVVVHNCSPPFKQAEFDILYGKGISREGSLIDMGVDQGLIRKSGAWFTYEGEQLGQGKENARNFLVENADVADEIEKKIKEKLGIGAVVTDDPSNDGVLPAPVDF

[6] = biological target: Induced myeloid leukemia cell differentiation protein Mcl-1 (Homo sapiens, UniProt Q07820); format: functional
Sequence of Induced myeloid leukemia cell differentiation protein Mcl-1 (Q07820 whole entry): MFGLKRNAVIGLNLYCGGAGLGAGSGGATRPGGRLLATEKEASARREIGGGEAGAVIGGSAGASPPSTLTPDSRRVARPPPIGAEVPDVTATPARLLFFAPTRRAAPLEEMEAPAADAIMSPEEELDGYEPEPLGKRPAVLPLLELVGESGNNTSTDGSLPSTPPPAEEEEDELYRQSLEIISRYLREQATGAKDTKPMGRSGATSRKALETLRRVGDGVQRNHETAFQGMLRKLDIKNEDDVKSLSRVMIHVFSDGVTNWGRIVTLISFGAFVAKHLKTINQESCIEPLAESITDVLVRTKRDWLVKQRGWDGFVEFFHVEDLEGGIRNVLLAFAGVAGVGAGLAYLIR

[7] = viability of uninfected HEp-2 cells – cell-based, HTS, cytotoxicity control for RSV inhibitor project, dose response (AID 2410); format: functional; conditions: human respiratory syncytial virus
[8] = Luminescence Cell-Based Dose Retest to Confirm Inhibitors of Cancer Stem Cells. [Related pubchem assays (depositor defined):AID2717, AID2721]; format: functional; conditions: Homo sapiens
[9] = biological target: T1, Heat shock factor protein 1; test: decrease of HSF1-responsive luciferase luminescence – cell-based, NIH3T3, dose retest, confirmation (AID 2382); format: functional;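 note: NIH3T3 fibroblasts with HSF1-driven luciferase reporter stressed by proteasome inhibitor MG132; luminescence from HSF1-driven luciferase expression after 8 hours of MG132 stress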
[10] = luciferase reporter signal suppression in cells – H4 neuroglioma cells, luminescence, dose response (AID 1990); format: functional, cell-based
[11] = test system: Streptococcus sp. 'group A'; test: Streptococcus pyogenes SK(-)GAS viability under kanamycin – luminescence, BacTiterGlo, confirmation, counter-screen for streptokinase expression inhibitor project, dose response (AID 1900); format: functional, organism-based
[12] = Luminescence Cell-Based Dose Response HTS to Identify Inhibitors of 5'UTR Stem-Loop Driven Prion Protein mRNA Translation in H4 Neuroglioblastoma Cells. [Related pubchem assays: 1827 (Project Summary), 1813 (Primary HTS)]; format: functional
[13] = alpha-synuclein stem-loop luciferase translation blockers – H4 neuroglioma cells, luminescence, confirmation (AID 1988); format: functional, cell-based
Streptococcus = test: GAS UMAA2166 growth inhibition – luminescence, BacTiterGlo, counter-screen for streptokinase expression inhibitor project, dose response (AID 1915); format: functional, organism-based;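 note: potency for reduction of bacterial viability or growth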
cells = format: functional
Cytochrome P450 2D6 = Cytochrome P450 2D6 (Homo sapiens, UniProt P10635);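 note: CYP2D6 member of a cytochrome P450 panel assay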
Sequence of Cytochrome P450 2D6 (P10635 whole entry): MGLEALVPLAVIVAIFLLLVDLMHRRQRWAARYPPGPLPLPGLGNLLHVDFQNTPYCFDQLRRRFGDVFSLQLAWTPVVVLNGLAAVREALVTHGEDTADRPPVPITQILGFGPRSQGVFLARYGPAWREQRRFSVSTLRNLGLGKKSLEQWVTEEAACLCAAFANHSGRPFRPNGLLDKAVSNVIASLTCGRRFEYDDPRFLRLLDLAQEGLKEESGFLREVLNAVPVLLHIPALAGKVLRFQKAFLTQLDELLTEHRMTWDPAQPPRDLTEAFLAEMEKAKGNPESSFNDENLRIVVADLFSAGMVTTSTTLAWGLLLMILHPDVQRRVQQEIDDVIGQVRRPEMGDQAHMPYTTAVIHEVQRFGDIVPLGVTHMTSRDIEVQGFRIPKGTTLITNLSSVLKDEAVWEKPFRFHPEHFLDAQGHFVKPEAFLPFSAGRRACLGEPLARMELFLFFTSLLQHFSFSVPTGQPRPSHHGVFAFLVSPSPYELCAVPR

Sequence of Large T antigen (P03070 whole entry): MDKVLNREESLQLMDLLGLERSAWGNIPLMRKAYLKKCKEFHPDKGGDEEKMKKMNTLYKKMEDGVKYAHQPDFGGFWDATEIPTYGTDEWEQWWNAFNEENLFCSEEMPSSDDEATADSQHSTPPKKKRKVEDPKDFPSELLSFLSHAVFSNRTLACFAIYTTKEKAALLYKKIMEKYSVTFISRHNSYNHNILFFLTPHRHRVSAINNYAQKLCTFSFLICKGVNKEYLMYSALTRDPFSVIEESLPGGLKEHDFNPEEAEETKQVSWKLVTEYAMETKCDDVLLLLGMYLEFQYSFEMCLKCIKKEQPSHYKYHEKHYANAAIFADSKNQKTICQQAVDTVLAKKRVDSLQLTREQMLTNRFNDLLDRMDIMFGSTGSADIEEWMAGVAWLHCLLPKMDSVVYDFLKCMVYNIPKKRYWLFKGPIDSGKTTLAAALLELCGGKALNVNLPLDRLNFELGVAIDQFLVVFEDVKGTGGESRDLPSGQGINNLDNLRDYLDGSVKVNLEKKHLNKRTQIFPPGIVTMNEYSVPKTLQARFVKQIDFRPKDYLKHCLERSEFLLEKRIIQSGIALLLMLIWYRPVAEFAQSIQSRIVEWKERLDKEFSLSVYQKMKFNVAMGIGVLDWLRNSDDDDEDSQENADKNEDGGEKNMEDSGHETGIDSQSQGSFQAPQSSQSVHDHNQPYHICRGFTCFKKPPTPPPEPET

## O=C(Oc1ccc(N(Cc2cccs2)C2=NS(=O)(=O)c3ccccc32)cc1)c1ccccc1Cl
H9c2
  IC50: 23.2 µM (active)

## NNC(=O)c1cc(-c2ccccc2)sc1N
Large T antigen
  IC50: 17.2 µM (active)
[1]
  AC50: 8.45 µM (active)

## CCn1c2ccccc2c2cc(NC(=O)CSc3nnc(-c4cccc(OC)c4)n3N)ccc21
[2]
  EC50: 32.1 µM (active)
[3]
  EC50: 31.5 µM (active)
[4]
  EC50: 33.9 µM (active)

## O=C(Nc1ccc(Cl)c(Cl)c1)N1CCSC1c1ccco1 (stereo not drawn)
INS1
  AC50: 11.8 µM (active)

## CCN(CC)c1ccc(C2C(C(=O)OC(C)C)C(=O)CC(C)(O)C2C(=O)OC(C)C)cc1 (stereo not drawn)
H9c2
  IC50: > 79 µM (inactive)

## CC(C)c1n[nH]c2c1C(c1cccnc1)C(C#N)=C(N)O2 (stereo not drawn)
[5]
  AC50: 1.78 µM (active)
Protein RecA
  EC50: 1.81 µM (inconclusive)

## CCCc1n[nH]c(O)c1C(c1ccc(Br)cc1)C(C#N)C#N (stereo not drawn)
[1]
  AC50: 2.24 µM (active)
[5]
  AC50: 5.5 µM (active)
Protein RecA
  EC50: 4.06 µM (active)

## CCn1c(SCC(=O)Nc2ccc(OC)cc2)nc2nc3c(cc2c1=O)CCCC3
INS1
  AC50: 38.7 µM (active)

## CN(C)c1ccc(C(CNC(=O)c2ccc(F)cc2)c2c[nH]c3ccccc23)cc1 (stereo not drawn)
[6]
  IC50: 3.08 µM (not active)

## CN(C)c1ccc(NC(=O)c2ccc3[nH]cnc3c2)cc1
Large T antigen
  IC50: 6.99 µM (active)

## O=C(O)CCC(=O)Nc1ccc(SSc2ccc(NC(=O)CCC(=O)O)cc2)cc1
Large T antigen
  IC50: 5.39 µM (active)

## C=C(C)COc1ccc(-c2nc(N)ncc2-c2ccc(Br)cc2)c(O)c1
[7]
  CC50: 15.7 µM (active)
[8]
  AC50: 5.37 µM (active)

## c1ccc(CN2CCC(Nc3nc(-c4cccs4)nc4ccccc34)CC2)cc1
[8]
  AC50: 4.2 µM (active)

## N#Cc1c(-c2ccco2)cc(-c2cccnc2)nc1N
H9c2
  IC50: > 79 µM (inactive)

## CCOc1ccc(N=Nc2c(N)n[nH]c2O)cc1
[9]
  EC50: > 195 µM (not active)
[5]
  AC50: 15.3 µM (active)
Protein RecA
  EC50: 3.85 µM (active)

## CSc1nc(=S)n(-c2ccc([N+](=O)[O-])cc2)c(C)c1C(C)=O
[5]
  AC50: 40.3 µM (active)
Protein RecA
  EC50: 12.1 µM (active)

## O=C(Nc1ccc(O)cc1)/C(=C\c1cccs1)NC(=O)c1ccccc1
Large T antigen
  IC50: 23 µM (active)

## Cc1ccccc1NP(=O)(Oc1ccccc1F)Oc1ccccc1F
H9c2
  IC50: > 79 µM (inactive)

## C=C(C)CN=C(S)NNC(=O)CCn1c2ccc(Cl)cc2c2cc(Cl)ccc21
[10]
  EC50: > 120 µM (not active)
[11]
  EC50: 2.84 µM (active)
[12]
  EC50: > 120 µM (not active)
[13]
  EC50: > 120 µM (not active)
Streptococcus
  EC50: 8.01 µM (active)
[8]
  AC50: 1.44 µM (active)

## C=CCNC(S)=NNC(=O)c1cc(O)ccc1O
Large T antigen
  IC50: > 100 µM (active)

## COC(=O)C1CCN(C(=O)c2cc(-c3ccc(Cl)s3)nc3ccccc23)CC1
INS1
  AC50: 3.98 µM (active)

## Cc1ccc(C(C[N+](=O)[O-])n2nc(C)cc2C)cc1 (stereo not drawn)
[8]
  AC50: 13 µM (active)

## CC(C)Oc1cccc(C(=O)NC(=S)Nc2ccccc2N2CCOCC2)c1
[8]
  AC50: 4.53 µM (active)

## COc1ccc(-c2ccc3c(n2)sc2c(=O)[nH]c(=O)[nH]c23)cc1OC
[6]
  IC50: 1.76 µM (active)

## CNc1nc2cc([N+](=O)[O-])c([N+](=O)[O-])cc2nc1NC
INS1
  AC50: 0.32 µM (active)

## O=C(COC(=O)CCc1c[nH]c2ccccc12)NCc1ccc2c(c1)OCO2
cells
  IC50: 11.3 µM (active)

## COc1cc(-c2cc(C(=O)OCC(=O)NC3CC3)c3ccccc3n2)cc(OC)c1OC
H9c2
  IC50: > 79 µM (inactive)

## COc1ccccc1NC(=O)c1cc(-c2ccc(OC)c(OC)c2)nc2ccccc12
H9c2
  IC50: > 79 µM (inactive)

## Cc1ccccc1NC(=O)COc1cccc2c1CCNC2=O
H9c2
  IC50: 13.9 µM (active)

## O=C(Cn1[nH]c(=O)c2ccccc2c1=O)NC1CCN(Cc2ccccc2)CC1
H9c2
  IC50: > 79 µM (inactive)

## COc1ccc(/C=N/NC(=O)c2cc[nH]n2)cc1COc1ccc(Cl)cc1
H9c2
  IC50: > 79 µM (inactive)
Cytochrome P450 2D6
  AC50: 25.1 µM (inconclusive)

## O=C(O)CCc1nc(-c2cccs2)no1
[6]
  IC50: 17.6 µM (not active)

## Cc1ccc(Sc2c(C)[nH]n(C(C)(C)C)c2=O)cc1
[5]
  AC50: 30 µM (active)
Protein RecA
  EC50: 1.47 µM (active)

## Cc1ccc2[nH]c3nc(N/N=C/c4cccc(O)c4)nnc3c2c1
[8]
  AC50: < 0.16 µM (active)

## COc1cc(NC(=O)C/C(C)=N/NC(=O)c2cccs2)c(OC)cc1Cl
cells
  IC50: 2.79 µM (active)

## COCCn1/c(=N/C(=O)c2nc3ccccc3s2)sc2cc(S(C)(=O)=O)ccc21
H9c2
  IC50: > 79 µM (inactive)
